Test results published in ChEMBL document CHEMBL3301555, “MMV Malaria Box screening in pLDH viability assay against Plasmodium falciparum gametocytes”.

Test system: Plasmodium falciparum
Test: MMV: Measure of pLDH activity as indication of parasite viability. Gametocytogenesis of 3D7 Plasmodium falciparum strain was induced in vitro and asexual parasites were depleted with N-acetylglucosamine. Gametocytes were treated with dihydroartemisinin, epoxomicin, methylene blue, primaquine, puromycin or chloroquine in 96-well plates and the pLDH activity was evaluated using a modified Makler protocol. Mosquito infectivity was measured by the standard membrane feeding assay.
Assay type: functional
Design: concentration or dose not given beside the values

Compound	Growth Inhibition
COc1ccc2c(c1)C1(Nc3ccccc3-c3nc4ccccc4n31)C(=O)N2 (stereo not given)	23.3334%
COc1cccc(Cn2c(Oc3ccccc3)nc3c2c(=O)n(C)c(=O)n3C)c1	5.4442%
CCOc1c(Cl)cc(CNCC(O)c2ccccc2)cc1OC (stereo not given)	20.5848%
COc1ccc2nc(C)cc(Nc3ccccc3O)c2c1	10.6942%
CCOc1ccccc1CN1CCc2nc3cc(C(C)(C)C)nn3c(O)c2C1	8.4768%
Cc1cc(N2CCCC2)nc(Nc2ccc(NC(=O)CCc3ccccc3)cc2)n1	14.278%
CN1CCN(c2ncnc3c2[nH]c2ccc(Cl)cc23)CC1	7.405%
CC1(c2ccccc2)Nc2ccccc2-c2nc3ccccc3n21 (stereo not given)	8.0798%
O=C1c2ccccc2-c2nnc(-c3ccc(Br)cc3)cc21	29.9528%
O=C(Nc1ccc(Br)cc1)Nc1cccc(Cl)c1	8.8754%
CN(C)CCNc1cc(-c2ccccc2)nc2ccccc12	2.7026%
CCOC(=O)C1=C(C)N=c2sc(=Cc3ccccc3O)c(=O)n2C1c1ccc(OC)c2ccccc12 (stereo not given)	6.5248%
CCOC(=O)C1=C(C)N=c2sc(=Cc3cc(Cl)ccc3O)c(=O)n2C1c1ccc(OC)cc1 (stereo not given)	18.9955%
Cc1nc2ccccc2c(O)c1CC=C(Cl)Cl	28.4855%
FC(F)(F)c1cccc(Nc2nc3ccccc3nc2Nc2cccc(C(F)(F)F)c2)c1	23.1188%
COc1ccc2nc(C)cc(Nc3ccc(Cl)cc3)c2c1	15.7236%
CCC(O)c1ccc(Br)cc1NC(=O)c1cccc(Cl)c1 (stereo not given)	24.26%
COc1ccc2nc(C)cc(Nc3cccc(O)c3)c2c1.Cl	10.892%
O=c1nc(C=Cc2ccc(Br)cc2)oc2ccccc12	11.7922%
COc1ccc2nc(N)nc(C)c2c1	7.6614%
CC(=O)c1ccc(NC(=O)CSc2nc(-c3ccccc3Cl)ns2)cc1	4.3696%
CCC(=O)Nc1nnc(Cc2ccc(OC)c(OC)c2)s1	9.8854%
Cc1ccnc(NC(c2cccc(OCc3ccccc3)c2)c2ccc3cccnc3c2O)c1 (stereo not given)	-1.2034%

Compound	Growth Inhibition
CCCCOC(=O)c1ccc(Nc2cc(C)nc3ccc(OC)cc23)cc1	15.2218%
O=C(Nc1ccc(CN2CCOCC2)cc1)c1ccc(-c2cc(Cl)ccc2Cl)o1	12.3128%
Cc1cc(Nc2cccc(F)c2)nc(NCc2ccccc2)n1	7.8192%
O=c1cc(NC2CCN(CCCc3ccccc3)CC2)c2cc(Cl)ccc2o1	18.578%
Cc1ccc(OCCCCCCNCCO)c(C)c1	3.067%
COc1cccc(C(=O)Nc2ccc(-c3nc4ccccc4[nH]3)cc2)c1	15.5734%
COCCn1c(C)nc2ccccc2c1=O	4.3894%
O=C(Nc1cccc(-c2nc3ccccc3[nH]2)c1)c1cccc(NC(=O)c2ccco2)c1	6.1984%
O=C(NC1CCN(Cc2ccccc2)CC1)c1cc(-c2cccnc2)nc2ccc(Cl)cc12	12.1742%
CCOc1ccc(-n2cc(-c3ccccc3)c3c(SCc4cc(C)ccc4C)ncnc32)cc1	2.789%
CC1CCN(Cc2c(O)ccc3cc(-c4nc5ccccc5s4)c(=O)oc23)CC1	9.8172%
COc1ccc(C2C(C(=O)Nc3cccc(OC)c3)c3ccccc3C(=O)N2C2CCCCC2)cc1 (stereo not given)	-2.347%
CCOC(=O)c1cnc2ccc(Cl)cc2c1NCCCN(C)C	5.776%
CCOc1ccccc1NC(=O)CN1CCN(C(=O)c2ccco2)CC1	5.6622%
c1ccc2c(NCCc3c[nH]c4ccccc34)c3ccccc3nc2c1	22.8248%
O=C(Nc1ccc(C23CC4CC(CC(c5ccccc5)(C4)C2)C3)cc1)c1cccs1	4.2535%
O=C1c2ccccc2C2=Nc3ccccc3SC(c3cccc(F)c3)C12 (stereo not given)	29.827%
Cc1ccccc1OCCSc1nc2ccc(NC(=O)c3ccccc3)cc2s1	-3.751%
CCOC(=O)c1cnc2c(C)cccc2c1Nc1ccc(C(C)=O)cc1	14.9964%
COc1ccc(-c2nonc2NC(=O)c2cccc(Cl)c2)cc1OC	6.9258%
Cc1cc(NC(=O)c2ccc(-c3ccccc3)cc2)no1	4.97%
CCOc1cc2c(cc1OCC)C(c1cc(C)c(O)c(C)c1)NCC2.Cl (stereo not given)	25.854%
O=C1CC(O)(C(F)(F)C(F)(F)F)Oc2ccccc21 (stereo not given)	1.4958%

Compound	Growth Inhibition
COc1cc(SC)ccc1C(=O)N1CCCC(C)C1 (stereo not given)	14.445%
Cc1ccc(C2CC(C(F)(F)F)n3nc(C(=O)N4CCN(C(c5ccccc5)c5ccccc5)CC4)cc3N2)cc1 (stereo not given)	4.7565%
Cc1ccc2nc(C)cc(Nc3cccc(C(F)(F)F)c3)c2c1.Cl	-5.193%
CC(C)c1ccc(CNCC(O)c2ccccc2)cc1.Cl (stereo not given)	37.0308%
CC(C)(C)c1ccc(C(=O)Nc2c3c(nn2-c2cccc(Cl)c2)CSC3)cc1	9.0986%
CCOc1cc2c(cc1OCC)C(c1cc(Cl)c(O)c(OCC)c1)NCC2 (stereo not given)	16.0386%
COc1ccc(N2CCN(C(CNC(=O)CC(C)(C)C)c3ccc4c(c3)OCO4)CC2)cc1 (stereo not given)	14.9208%
CCCCCCn1c(=N)n(CC(O)COc2cccc(C)c2)c2ccccc21.Cl (stereo not given)	34.1668%
Cc1ccc(NC(=O)Nc2cccc(Cl)c2)cc1F	3.3088%
O=C(O)C(=O)O.Oc1ccc(Br)cc1CN1CCN(Cc2cccc(F)c2)CC1	29.456%
COc1ccc(-c2cc(=O)oc3c4c(ccc23)OCN(Cc2ccc(F)cc2)C4)cc1	25.9468%
CCOC(=O)C1(Cc2ccccc2)CCN(Cc2cccc(OC)c2O)CC1	37.59%
Oc1ccc(C(=C(Cl)Cl)c2ccc(O)cc2)cc1	9.2564%
CCOc1ccc2c(c1)CN(Cc1ccc(Cl)cc1)CO2	25.403%
CC(C)(C)c1ccc2c(c1)CN(Cc1ccc(Cl)cc1)CO2	36.3995%
CCCCC(O)(c1ccc(Cl)cc1)C(CN1CCOCC1)c1ccc(Cl)cc1.Cl (stereo not given)	3.244%
O=c1nc(C=Cc2ccc(Cl)cc2)oc2ccccc12	11.0552%
O=C(NCc1ccco1)C1CCN(S(=O)(=O)c2ccc(Br)cc2)CC1	6.982%
CN(C)c1ccc(N2C(N)=NC(N)=NC2(C)C)cc1	5.041%
COc1ccc(Nc2nc(NCc3ccccc3)c3ccccc3n2)cc1	17.5424%
COc1ccc(OC)c(C2C3=C(CC(C)(C)CC3=O)N(c3ccc(Cl)c(Cl)c3)C3=C2C(=O)CC(C)(C)C3)c1	21.894%
Cc1cc(=O)oc2c1ccc1oc(C(=O)c3ccccc3)c(C)c12	19.4%
COc1ccc(CN2CCN(Cc3ccccc3)CC2)c(O)c1	26.2585%

Compound	Growth Inhibition
COc1cc2c(cc1OC)C1=NNC(=O)C1=NC(C)(C)C2	35.8316%
COc1ccc2c(c1OC)C(=O)N1c3ccccc3N=C(c3ccc(C)cc3)CC21 (stereo not given)	14.488%
CCCCCCc1cc(O)c2c3c(c(=O)oc2c1)CCC(C)C3 (stereo not given)	26.585%
Cl.OC(CNCc1ccccc1)Cn1c2ccccc2c2ccccc21 (stereo not given)	33.103%
COc1ccc(CCNC(=O)c2cc(S(=O)(=O)N3CC(C)CC(C)C3)ccc2Sc2ccc(F)cc2)cc1OC (stereo not given)	10.1532%
CCOc1ccc(Nc2c3ccccc3nc3ccccc23)cc1.Cl	2.291%
CCCCc1c(C)nc2c(OC)cccc2c1O	10.7044%
OC1CCCCC1C1(NC(=S)Nc2ccccc2)CCCCC1 (stereo not given)	-6.2185%
OC1=C2C(=Nc3ccccc3SC2c2ccc(Br)cc2)c2ccccc21 (stereo not given)	30.3526%
COc1ccc(C)c2sc(N(Cc3cccnc3)C(=O)c3ccc(C#N)cc3)nc12	-12.2204%
Clc1ccc2c(N3CCCC3)ccnc2c1	18.4524%
CCOC(=O)C1CCN(C(=O)CN2C(=O)c3ccccc3C2c2c[nH]c3ccccc23)CC1 (stereo not given)	48.711%
CCOc1ccc(CCNC(=O)c2cccs2)cc1OCC	6.4232%
COc1ccc(C(=O)C2CC2c2ccc(Cl)cc2)cc1 (stereo not given)	8.002%
CCCCCn1c(=N)n(CC(O)COc2cccc(C)c2)c2ccccc21.Cl (stereo not given)	34.3056%
O=c1c2c([nH]c3ccccc13)CCCC2	19.1396%
COc1ccccc1N1C(=N)SC(=Cc2ccc(OCc3ccccc3F)cc2)C1=O	14.0558%
CCN1CCN(c2c(C(=O)c3ccccc3)cnc3cc(OC)c(OC)cc23)CC1	-1.335%
Cc1c(C)n(CC(O)CNC2CCCCC2C)c2ccccc12 (stereo not given)	42.7668%
Cc1ccc(S(=O)(=O)c2c(COC(=O)c3cccc(C)c3)c(-c3ccccc3)nn2C)cc1	4.058%
CCCCN(CCCC)S(=O)(=O)c1ccc(NC(=O)c2ccco2)cc1	9.666%
